Results: ChEMBL document CHEMBL1201862, “PubChem BioAssay data set” (2004)
Activity calls are given as the source filed them.

Experiments:
[1] = target: T1, Endoribonuclease toxin MazF (Escherichia coli K-12, UniProt P0AE70); test: substrate-only fluorescence increase artefacts – biochemical, single-stranded RNase substrate, counter-screen for MazEF activator project, dose response (AID 588502); assay type: functional
T1 sequence (P0AE70 whole entry): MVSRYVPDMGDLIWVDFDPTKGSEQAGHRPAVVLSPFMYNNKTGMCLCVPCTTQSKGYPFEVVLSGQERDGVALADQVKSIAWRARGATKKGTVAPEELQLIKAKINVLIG

[2] = target: T1, Endoribonuclease toxin MazF; test: activation of MazEF endoribonuclease cleavage – biochemical, fluorescence, single-stranded RNA substrate, uHTS hits, dose response (AID 588481); assay type: functional
cells [3] = assay type: functional
cells [4] = assay type: functional, cell-based
[5] = Vero E6 cell cytotoxicity, dose response, cytotoxicity control for non-replicating M. tuberculosis project, secondary assay (AID 492998); assay type: functional, VeroE6; conditions: Vero C1008
[6] = microbe, parasite or virus in culture; assay type: functional; conditions: Mycobacterium tuberculosis
[7] = THP-1 cell cytotoxicity, dose response, cytotoxicity control for non-replicating M. tuberculosis project (AID 489025); assay type: functional
cells [8] = assay type: functional, cell-based; remark: listed apart in the source
Cytochrome P450 3A4 = Cytochrome P450 3A4 (Homo sapiens, UniProt P08684); conditions: Potency;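 further: confirmatory qHTS run detecting inhibitors and substrates of CYP3A4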
[9] = target: T2, Polyadenylate-binding protein 1 (Homo sapiens, UniProt P11940); test: MLLE binding blockers, Cy5 peptide tracer – biochemical, fluorescence polarization, Cy5-PAM2 peptide, secondary, miRNA deadenylation inhibitor project, dose response (AID 602260); assay type: functional; conditions: read-out: IC50_Mean
[10] = target: T2, Polyadenylate-binding protein 1; test: MLLE domain peptide-binding blockers, IC50 – biochemical, fluorescence polarization, FITC-PAM2 peptide, dose response (AID 602259); assay type: functional; conditions: read-out: IC50_Mean
[11] = target: Heat shock protein HSP 90-alpha (Homo sapiens, UniProt P07900); assay type: functional, organism-based
cells [12] = assay type: functional, cell-based; remark: listed apart in the source
cells [13] = assay type: functional, cell-based; remark: listed apart in the source
[14] = alpha-synuclein stem-loop luciferase translation blockers – H4 neuroglioma cells, luminescence, confirmation (AID 1988); assay type: functional, cell-based
[15] = luciferase reporter signal suppression in cells – H4 neuroglioma cells, luminescence, dose response (AID 1990); assay type: functional, cell-based
[16] = Luminescence Cell-Based Dose Response HTS to Identify Inhibitors of 5'UTR Stem-Loop Driven Prion Protein mRNA Translation in H4 Neuroglioblastoma Cells. [Related pubchem assays: 1827 (Project Summary), 1813 (Primary HTS)]; assay type: functional
[17] = Trypanosoma cruzi growth suppression in host cells – NIH3T3 host cells, beta-gal luminescence, confirmation (AID 2044); assay type: functional, cell-based;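 further: intracellular parasites grown in NIH/3T3 mouse fibroblasts as host cells; luminescent beta-galactosidase reporter signal from transgenic T. cruzi replicating inside host cells; inhibitors lower the luminescence signal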
[18] = NIH3T3 cell viability loss – ATP luminescence, mouse fibroblasts, counter-screen, dose response (AID 2010); assay type: functional, cell-based;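 further: cells exposed to compound for about 90 hours before reading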
[19] = reduction of Shn3 3'UTR-driven luciferase in osteoblasts – cell-based, Clone20 osteoblasts, firefly luciferase, cherry-picked, dose response (AID 624132); assay type: functional;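 further: firefly luciferase luminescence from reporter carrying the Shn3 3'UTR in osteoblasts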
[20] = non-specific 3'UTR reporter inhibition in Clone20-Shn3RL – cell-based, Renilla luciferase, cherry-picked, counter-screen for Shn3 inhibitor project, dose response (AID 624133); assay type: functional
[21] = HEK-293T viability loss after treatment – luminescence, T-cell screen hits, cytotoxicity control for TCR NF-kB inhibitor project, dose response (AID 489026); assay type: functional, cell-based;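 further: cells exposed to compound about 14 hours before the viability readout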
[22] = intracellular Trypanosoma cruzi inhibitors in host cells – cell-based, plate reader, cherry-pick samples, set 3, dose response (AID 651818); assay type: functional;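 further: compounds incubated with infected cells for about four days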
Protein RecA = target: T3, Protein RecA (Mycobacterium tuberculosis, UniProt P9WHJ3); test: Fluorescence Cell-Free Homogeneous Dose Retest to Identify Inhibitors of RecA-Intein Splicing Activity. [Related pubchem assays (depositor defined):AID2097, AID2223, AID489010, AID492950]; assay type: functional
T3 sequence (P9WHJ3 whole entry): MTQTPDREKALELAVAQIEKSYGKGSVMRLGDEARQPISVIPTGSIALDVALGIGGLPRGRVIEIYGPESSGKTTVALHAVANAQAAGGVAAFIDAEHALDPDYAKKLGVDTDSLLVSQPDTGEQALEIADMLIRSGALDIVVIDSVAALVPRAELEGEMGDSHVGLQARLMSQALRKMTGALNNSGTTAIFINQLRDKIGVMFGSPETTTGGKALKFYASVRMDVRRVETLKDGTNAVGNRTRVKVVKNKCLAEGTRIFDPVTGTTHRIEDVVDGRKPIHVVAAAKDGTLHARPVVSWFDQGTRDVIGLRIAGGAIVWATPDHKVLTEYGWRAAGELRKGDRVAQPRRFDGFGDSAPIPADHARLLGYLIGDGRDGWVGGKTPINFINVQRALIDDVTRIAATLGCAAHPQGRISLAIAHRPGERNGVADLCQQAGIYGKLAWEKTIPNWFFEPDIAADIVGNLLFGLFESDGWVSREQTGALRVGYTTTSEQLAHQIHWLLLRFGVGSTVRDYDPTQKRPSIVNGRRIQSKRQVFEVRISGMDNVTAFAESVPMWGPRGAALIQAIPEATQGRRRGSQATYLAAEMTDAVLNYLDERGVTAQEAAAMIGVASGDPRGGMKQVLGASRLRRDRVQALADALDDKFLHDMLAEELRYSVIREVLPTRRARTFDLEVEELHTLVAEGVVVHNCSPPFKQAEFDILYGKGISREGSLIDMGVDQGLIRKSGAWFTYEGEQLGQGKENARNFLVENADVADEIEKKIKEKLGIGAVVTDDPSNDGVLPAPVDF

[23] = target: T4, Replicative DNA helicase DnaB (Mycobacterium tuberculosis, UniProt P9WMR3); test: DnaB intein splicing inhibitors, dose response, biochemical, cell-free fluorescence (AID 449749); assay type: functional
T4 sequence (P9WMR3 whole entry): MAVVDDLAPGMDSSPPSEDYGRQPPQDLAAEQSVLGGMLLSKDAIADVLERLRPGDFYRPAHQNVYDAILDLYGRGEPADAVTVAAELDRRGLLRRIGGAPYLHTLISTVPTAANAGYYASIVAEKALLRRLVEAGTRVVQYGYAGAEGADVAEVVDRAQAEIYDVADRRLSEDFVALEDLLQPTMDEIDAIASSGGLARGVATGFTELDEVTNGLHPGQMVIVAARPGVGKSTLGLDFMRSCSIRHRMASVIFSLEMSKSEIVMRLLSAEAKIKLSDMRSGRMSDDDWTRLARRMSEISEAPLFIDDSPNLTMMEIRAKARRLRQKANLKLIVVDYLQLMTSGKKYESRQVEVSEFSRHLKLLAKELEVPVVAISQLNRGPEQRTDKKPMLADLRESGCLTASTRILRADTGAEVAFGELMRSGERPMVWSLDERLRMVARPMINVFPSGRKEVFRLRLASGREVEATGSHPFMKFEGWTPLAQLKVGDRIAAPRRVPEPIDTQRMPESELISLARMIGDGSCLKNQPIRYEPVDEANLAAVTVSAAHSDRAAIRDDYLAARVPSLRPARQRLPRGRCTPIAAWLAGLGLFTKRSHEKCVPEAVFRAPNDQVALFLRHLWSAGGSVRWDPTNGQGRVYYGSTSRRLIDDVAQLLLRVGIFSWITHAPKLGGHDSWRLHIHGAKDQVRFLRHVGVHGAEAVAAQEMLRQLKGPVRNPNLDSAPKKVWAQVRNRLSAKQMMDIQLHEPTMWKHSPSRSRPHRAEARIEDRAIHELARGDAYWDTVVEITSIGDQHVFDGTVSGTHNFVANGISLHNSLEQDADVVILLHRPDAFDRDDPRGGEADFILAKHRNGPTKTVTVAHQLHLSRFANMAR

H9c2 = test: cells; assay type: functional, cell-based; conditions: Rattus norvegicus, H9c2, Myocardium;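 further: confirmatory concentration-response retest of ultra-high-throughput screening hits for modulation of myocardial damage; cell death induced by hydrogen peroxide oxidative stress; compound pretreatment for 60 min then peroxide exposure for 2 h; potency is for protecting the cells against peroxide damage rather than for killing them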
[24] = P. falciparum Dd2 growth inhibitors, dose response, SYBR Green, cherry-picked samples (AID 1159567); assay type: functional, cell-based

Chain of Cytochrome P450 3A4 (P08684 whole entry): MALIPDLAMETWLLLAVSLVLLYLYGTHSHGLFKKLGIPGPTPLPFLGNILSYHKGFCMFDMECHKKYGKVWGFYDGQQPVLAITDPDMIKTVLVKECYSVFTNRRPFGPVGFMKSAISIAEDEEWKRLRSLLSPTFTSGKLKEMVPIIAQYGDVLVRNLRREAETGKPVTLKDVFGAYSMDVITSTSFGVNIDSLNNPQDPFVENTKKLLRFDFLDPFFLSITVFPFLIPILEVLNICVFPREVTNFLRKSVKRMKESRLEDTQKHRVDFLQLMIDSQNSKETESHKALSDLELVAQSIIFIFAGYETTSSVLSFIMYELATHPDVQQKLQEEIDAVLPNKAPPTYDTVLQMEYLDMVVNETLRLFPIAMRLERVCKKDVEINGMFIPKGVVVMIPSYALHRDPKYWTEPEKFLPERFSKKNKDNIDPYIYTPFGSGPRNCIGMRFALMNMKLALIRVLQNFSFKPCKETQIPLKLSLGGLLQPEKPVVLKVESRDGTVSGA
T2 sequence (P11940 whole entry, the tested form may be a part): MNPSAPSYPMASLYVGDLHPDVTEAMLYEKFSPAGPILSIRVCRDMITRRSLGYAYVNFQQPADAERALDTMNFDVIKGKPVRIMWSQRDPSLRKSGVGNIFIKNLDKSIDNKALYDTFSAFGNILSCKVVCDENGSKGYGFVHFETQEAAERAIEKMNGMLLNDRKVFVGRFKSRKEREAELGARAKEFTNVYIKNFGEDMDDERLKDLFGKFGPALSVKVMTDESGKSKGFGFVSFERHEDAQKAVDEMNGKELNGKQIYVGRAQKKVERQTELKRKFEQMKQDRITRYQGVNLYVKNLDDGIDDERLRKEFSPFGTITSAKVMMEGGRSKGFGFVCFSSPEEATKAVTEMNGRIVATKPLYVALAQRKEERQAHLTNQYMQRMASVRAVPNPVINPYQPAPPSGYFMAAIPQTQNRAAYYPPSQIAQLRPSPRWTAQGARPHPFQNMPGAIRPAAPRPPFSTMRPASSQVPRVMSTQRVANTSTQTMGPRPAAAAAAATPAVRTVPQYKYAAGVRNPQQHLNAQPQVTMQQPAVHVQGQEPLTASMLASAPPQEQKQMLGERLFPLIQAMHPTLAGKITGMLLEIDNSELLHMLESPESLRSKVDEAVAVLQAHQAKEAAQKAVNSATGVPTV

Cc1sc(NC(=O)COc2cccc(-n3cnnn3)c2)c(C#N)c1C
EC50 [1]: > 99 µM (inactive)
EC50 [2]: > 99 µM (inactive)

Cc1cc(C)nc(Sc2ncnc(N)c2[N+](=O)[O-])n1
IC50 (cells [3]): 11.7 µM (active)
EC50 (cells [4]): > 350 µM (not active)
CC50 [5]: 17.8 µM (active)
CC50 [6]: 26.3 µM (active)
CC50 [7]: 23.8 µM (active)
EC50 (cells [8]): > 350 µM (not active)

COC(=O)c1cccc(C23CC4(C2)[C@H](CN(Cc2ccc(-c5ccccc5)cc2)[C@@H]4c2ccccc2)C3c2ccc(C(F)(F)F)cc2)c1 (stereo partly specified)
AC50 (Cytochrome P450 3A4): 20 µM (inconclusive)

COc1ccc2nc3cc(Cl)ccc3c(C#N)c2c1
EC50 [1]: > 99 µM (inactive)
EC50 [2]: > 99 µM (inactive)
IC50 [9]: > 66 µM (inactive)
IC50 [10]: > 66 µM (inactive)

COc1cc(OC)cc(N2C(=O)CC(N3CCC(C(=O)N4CCCCC4)CC3)C2=O)c1 (stereo unspecified)
AC50 [11]: 8.16 µM (active)

NN=C(S)NCCc1ccccc1
IC50 (cells [12]): > 29.9 µM (inactive)
EC50 (cells [13]): > 29.9 µM (inactive)

NC(=O)CC(NC(=O)Cc1ccc(Cl)cc1)c1ccc(NCCc2ccccc2F)c([N+](=O)[O-])c1 (stereo unspecified)
IC50 (cells [12]): > 29.9 µM (inactive)
EC50 (cells [13]): > 29.9 µM (inactive)

CC1CN(c2ccc([N+](=O)[O-])c(NCCOc3ccc(Cl)cc3)c2)CC(C)N1 (stereo unspecified)
EC50 [14]: 9.59 µM (active)
EC50 [15]: > 120 µM (not active)
CC50 [6]: 11.7 µM (active)
EC50 [16]: 13.6 µM (active)

CCOC(=O)CSc1nc2cc(C)ccc2cc1C#N
EC50 [1]: 26.8 µM (inactive)
EC50 [2]: > 99 µM (inactive)

Nc1c(C(=O)c2ccc(Cl)cc2)sc2nc3c(cc12)CCC3
EC50 [1]: > 99 µM (inactive)
EC50 [2]: > 99 µM (inactive)

Cc1cccc(NC(=O)c2ccc([N+](=O)[O-])s2)n1
IC50 (cells [3]): 11.8 µM (active)
EC50 [17]: 0.325 µM (active)
CC50 [5]: 19.1 µM (active)
CC50 [7]: 29.9 µM (active)
EC50 [18]: > 60 µM (not active)

CCCCC(CC)COP(=O)(OCC(CC)CCCC)OCC(CC)CCCC (stereo unspecified)
AC50 (Cytochrome P450 3A4): 15.8 µM (inconclusive)

C=CCOC(=O)C(C(C)=O)C(NC(=O)OC)c1ccco1 (stereo unspecified)
AC50 (Cytochrome P450 3A4): 5.01 µM (inconclusive)

Cc1cc(C)n2nc(SCc3cccc(S(=O)(=O)N(C)C)c3)nc2n1
AC50 [19]: 14 µM (active)
AC50 [20]: 8.55 µM (active)

COC(=O)[C@@H]1C[C@@H]2CC[C@@H](O)C[C@@H]2N1Cc1ccc(C)s1
AC50 (Cytochrome P450 3A4): 25.1 µM (inconclusive)

CN(CC(=O)Nc1ccccc1Cl)C(=O)CCNC(=O)Nc1ccccc1
IC50 (cells [12]): > 29.9 µM (inactive)
EC50 (cells [13]): > 29.9 µM (inactive)

COc1cc(C2c3cc4c(cc3CC3COC(=O)C32)OCO4)cc(OC)c1OC (stereo unspecified)
IC50 [21]: > 80 µM (inactive)

Cc1ccc(S(=O)(=O)Nc2ccc3c(c2)C(=O)N([C@H](C)CO)C[C@H](C)[C@H](CN(C)S(=O)(=O)c2ccccc2)O3)cc1
AC50 [22]: 13.3 µM (active)

C[C@@H]1CN([C@H](C)CO)C(=O)Cc2cc(NC(=O)Nc3ccc(C(F)(F)F)cc3)ccc2O[C@H]1CN(C)CC1CCCCC1
AC50 [22]: 3.27 µM (active)

COc1ccc(CN(C)C[C@H]2Oc3ccc(NS(=O)(=O)c4ccc(Cl)cc4)cc3CC(=O)N([C@H](C)CO)C[C@H]2C)cc1
AC50 [22]: 4.65 µM (active)

C[C@H](CO)N1C[C@H](C)[C@H](CN(C)Cc2ccc(-c3ccccc3)cc2)Oc2ccc(NC(=O)C3CCCCC3)cc2CC1=O
AC50 [22]: 2.26 µM (active)

C[C@H](CO)N1C[C@H](C)[C@H](CN(C)S(=O)(=O)c2ccc(Cl)cc2)Oc2ccc(NC(=O)Nc3ccc(C(F)(F)F)cc3)cc2CC1=O
AC50 [22]: 3.91 µM (active)

C[C@@H]1CN([C@@H](C)CO)C(=O)Cc2cc(NC(=O)C3CC3)ccc2O[C@@H]1CN(C)Cc1ccc(C(=O)Nc2ccccc2N)cc1
AC50 [22]: 3.26 µM (active)

CC(C)c1cc(C(=O)NCCc2cccs2)c(N)s1
IC50 (cells [12]): > 29.9 µM (inactive)
EC50 (cells [13]): > 29.9 µM (inactive)

Cc1[nH]n(-c2ccccc2)c(=O)c1C(C[N+](=O)[O-])c1ccccc1Cl (stereo unspecified)
EC50 (Protein RecA): 5.48 µM (active)
CC50 [6]: > 40 µM (active)
AC50 [23]: 6.69 µM (active)

Cc1cccc(-n2[nH]c(C)c(/C=N/c3ccc4[nH]c(O)nc4c3)c2=O)c1
EC50 [1]: 65.2 µM (inactive)
IC50 (H9c2): > 79 µM (inactive)
EC50 [2]: 36 µM (inactive)

C[C@H](CO)N1C[C@H](C)[C@H](CN(C)Cc2ccc(Oc3ccccc3)cc2)Oc2c(NC(=O)c3nc4ccccc4s3)cccc2C1=O
AC50 [24]: 4.87 µM (active)

COCC(=O)N1CC2(C1)CN(Cc1cc(F)ccc1F)[C@H](CO)c1[nH]c3cc(OC)ccc3c12
AC50 [24]: 13.6 µM (active)

COC(=O)c1c(C)c2c(c(C)c1O)OC(=O)c1c(C)c(Cl)c(O)c(Cl)c1O2 [LEOIDIN]
AC50 (Cytochrome P450 3A4): 2.51 µM (inconclusive)
